{
  "source": "patent US10669268B2",
  "about": "“Bicyclic derivatives” (Hoffmann-La Roche Inc., priority 2012, dated 2020)",
  "target": "ATX (human His-tagged) (Homo sapiens (Human), UniProt Q13822)",
  "test": "Human ATX enzyme inhibition assay (fluorescence quenching, MR121 substrate)",
  "assay_type": "biochemical",
  "conditions": "30 nM ATX, 1 μM MR121 substrate, 30° C., pH 8.0",
  "how_it_was_run": "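Tris-HCl buffer at pH 8.0 contained 140 mM NaCl, 5 mM KCl, 1 mM each CaCl2 and MgCl2, and 0.01% Triton X-100. The MR121 substrate (1 μM final) was incubated with enzyme for 15 min at 30 °C, and activity was read by fluorescence quenching.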",
  "note": "pIC50: −log10 of the molar value.",
  "data": [
    {"smiles": "Cc1cc(OCC(=O)N2C[C@@H]3CN(C(=O)[C@@H]4CCc5[nH]nnc5C4)C[C@H]3C2)c(C(C)C)cc1C#N", "note": "[Example 19.27, 4-[2-[(3aS,6aS)-5-[(5R)-4,5,6,7-tetrahydro-1H-benzotriazole-5-carbonyl]-1,3,3a,4,6,6a-hexahydropyrrolo[3,4-c]pyrrol-2-yl]-2-oxoethoxy]-2-methyl-5-propan-2-ylbenzonitrile]", "values": [
      {"measurement": "pIC50", "value": 8.22}
    ]},
    {"smiles": "O=C(c1cc2ccccc2c(OCC(F)(F)F)n1)N1C[C@@H]2CN(C(=O)[C@@H]3CCc4[nH]nnc4C3)C[C@H]2C1", "note": "[Example 19.28, [(3aS,6aS)-5-[(5R)-4,5,6,7-tetrahydro-1H-benzotriazole-5-carbonyl]-1,3,3a,4,6,6a-hexahydropyrrolo[3,4-c]pyrrol-2-yl]-[1-(2,2,2-trifluoroethoxy)isoquinolin-3-yl]methanone]", "values": [
      {"measurement": "pIC50", "value": 8.70}
    ]},
    {"smiles": "CC(C)(C)c1cc(Br)ccc1OCC(=O)N1C[C@@H]2CN(C(=O)[C@@H]3CCc4[nH]nnc4C3)C[C@H]2C1", "note": "[Example 19.29, 1-[(3aS,6aS)-5-[(5R)-4,5,6,7-tetrahydro-1H-benzotriazole-5-carbonyl]-1,3,3a,4,6,6a-hexahydropyrrolo[3,4-c]pyrrol-2-yl]-2-(4-bromo-2-tert-butylphenoxy)ethanone]", "values": [
      {"measurement": "pIC50", "value": 9.00}
    ]},
    {"smiles": "CC(C)(C)c1cc(Br)ccc1OCC(=O)N1C[C@@H]2CN(C(=O)c3ccc4[nH]nnc4c3)C[C@H]2C1", "note": "[Example 19.30, 1-[(3aS,6aS)-5-(1H-benzotriazole-5-carbonyl)-1,3,3a,4,6,6a-hexahydropyrrolo[3,4-c]pyrrol-2-yl]-2-(4-bromo-2-tert-butylphenoxy)ethanone]", "values": [
      {"measurement": "pIC50", "value": 8.30}
    ]},
    {"smiles": "CC(C)(C)c1cc(C#N)ccc1OCC(=O)N1C[C@@H]2CN(C(=O)[C@@H]3CCc4[nH]nnc4C3)C[C@H]2C1", "note": "[Example 19.31, 4-[2-[(3aS,6aS)-5-[(5R)-4,5,6,7-tetrahydro-1H-benzotriazole-5-carbonyl]-1,3,3a,4,6,6a-hexahydropyrrolo[3,4-c]pyrrol-2-yl]-2-oxoethoxy]-3-tert-butylbenzonitrile]", "values": [
      {"measurement": "pIC50", "value": 8.70}
    ]},
    {"smiles": "O=C(COc1ccc(OC(F)(F)F)cc1)N1C[C@@H]2CN(C(=O)[C@@H]3CCc4[nH]nnc4C3)C[C@H]2C1", "note": "[Example 19.34, 1-[(3aS,6aS)-5-[(5R)-4,5,6,7-tetrahydro-1H-benzotriazole-5-carbonyl]-1,3,3a,4,6,6a-hexahydropyrrolo[3,4-c]pyrrol-2-yl]-2-[4-(trifluoromethoxy)phenoxy]ethanone]", "values": [
      {"measurement": "pIC50", "value": 8.52}
    ]},
    {"smiles": "CCOc1nc(C(=O)N2C[C@@H]3CN(C(=O)[C@@H]4CCc5[nH]nnc5C4)C[C@H]3C2)cc2ccccc12", "note": "[Example 19.35, [(3aS,6aS)-5-[(5R)-4,5,6,7-tetrahydro-1H-benzotriazole-5-carbonyl]-1,3,3a,4,6,6a-hexahydropyrrolo[3,4-c]pyrrol-2-yl]-(1-ethoxyisoquinolin-3-yl)methanone]", "values": [
      {"measurement": "pIC50", "value": 8.70}
    ]},
    {"smiles": "CCOc1cc(C(=O)N2C[C@@H]3CN(C(=O)c4ccc5[nH]nnc5c4)C[C@H]3C2)nc2ccccc12", "note": "[Example 19.37, ((3aS,6aS)-5-(1H-benzo[d][1,2,3]triazole-5-carbonyl)hexahydropyrrolo[3,4-c]pyrrol-2(1H)-yl)(4-ethoxyquinolin-2-yl)methanone]", "values": [
      {"measurement": "pIC50", "value": 7.82}
    ]},
    {"smiles": "O=C(c1ccc2[nH]nnc2c1)N1C[C@H]2CN(C(=O)c3cc(OCC(F)(F)F)c4ccccc4n3)C[C@@H]2C1", "note": "[Example 19.38, ((3aS,6aS)-5-(1H-benzo[d][1,2,3]triazole-5-carbonyl)hexahydropyrrolo[3,4-c]pyrrol-2(1H)-yl)(4-(2,2,2-trifluoroethoxy)quinolin-2-yl)methanone]", "values": [
      {"measurement": "pIC50", "value": 8.30}
    ]},
    {"smiles": "O=C(c1cnc(OC2CCC2)c(C(F)(F)F)c1)N1C[C@@H]2CN(C(=O)c3ccc4[nH]nnc4c3)C[C@H]2C1", "note": "[Example 19.39, ((3aS,6aS)-5-(1H-benzo[d][1,2,3]triazole-5-carbonyl)hexahydropyrrolo[3,4-c]pyrrol-2(1H)-yl)(6-cyclobutoxy-5-(trifluoromethyl)pyridin-3-yl)methanone]", "values": [
      {"measurement": "pIC50", "value": 8.15}
    ]},
    {"smiles": "COCCOc1ncc(C(=O)N2C[C@@H]3CN(C(=O)c4ccc5[nH]nnc5c4)C[C@H]3C2)cc1Br", "note": "[Example 19.40, ((3aS,6aS)-5-(1H-benzo[d][1,2,3]triazole-5-carbonyl)hexahydropyrrolo[3,4-c]pyrrol-2(1H)-yl)(5-bromo-6-(2-methoxyethoxy)pyridin-3-yl)methanone]", "values": [
      {"measurement": "pIC50", "value": 7.00}
    ]},
    {"smiles": "O=C(c1cnc(OCC2CC2)c(Br)c1)N1C[C@@H]2CN(C(=O)c3ccc4[nH]nnc4c3)C[C@H]2C1", "note": "[Example 19.41, ((3aS,6aS)-5-(1H-benzo[d][1,2,3]triazole-5-carbonyl)hexahydropyrrolo[3,4-c]pyrrol-2(1H)-yl)(5-bromo-6-(cyclopropylmethoxy)pyridin-3-yl)methanone]", "values": [
      {"measurement": "pIC50", "value": 6.16}
    ]},
    {"smiles": "O=C(c1cnc(OCC(F)(F)F)c(C2CC2)c1)N1C[C@@H]2CN(C(=O)c3ccc4[nH]nnc4c3)C[C@H]2C1", "note": "[Example 19.42, ((3aS,6aS)-5-(1H-benzo[d][1,2,3]triazole-5-carbonyl)hexahydropyrrolo[3,4-c]pyrrol-2(1H)-yl)(5-cyclopropyl-6-(2,2,2-trifluoroethoxy)pyridin-3-yl)methanone]", "values": [
      {"measurement": "pIC50", "value": 8.00}
    ]},
    {"smiles": "O=C(c1cnc(OCC(F)(F)F)c(C(F)(F)F)c1)N1C[C@@H]2CN(C(=O)c3ccc4[nH]nnc4c3)C[C@H]2C1", "note": "[Example 19.43, ((3aS,6aS)-5-(1H-benzo[d][1,2,3]triazole-5-carbonyl)hexahydropyrrolo[3,4-c]pyrrol-2(1H)-yl)(6-(2,2,2-trifluoroethoxy)-5-(trifluoromethyl)pyridin-3-yl)methanone]", "values": [
      {"measurement": "pIC50", "value": 7.85}
    ]},
    {"smiles": "O=C(c1ccc2[nH]nnc2c1)N1C[C@H]2CN(C(=O)N3CCC(c4ccc(Cl)cc4)CC3)C[C@@H]2C1", "note": "[Example 20, (1H-Benzotriazol-5-yl)-{(3aS,6aS)-5-[4-(4-chloro-phenyl)-piperidine-1-carbonyl]-hexahydro-pyrrolo[3,4-c]pyrrol-2-yl}-methanone]", "values": [
      {"measurement": "pIC50", "value": 7.54}
    ]},
    {"smiles": "O=C(c1ccc2[nH]nnc2c1)N1C[C@H]2CN(C(=O)N3CCN(c4ccc(Cl)cc4)CC3)C[C@@H]2C1", "note": "[Example 20.01, (1H-benzotriazol-5-yl)-{(3aS,6aS)-5-[4-(4-chloro-phenyl)-piperazine-1-carbonyl]-hexahydro-pyrrolo[3,4-c]pyrrol-2-yl}-methanone]", "values": [
      {"measurement": "pIC50", "value": 6.52}
    ]}
  ]
}
